From patent US5340829A, “Immunoregulatory agents” (priority 1992, dated 1994)
Entries after “also recorded” stand apart in the source; their conditions may differ. Where two headings read alike, the source gives them in different places.

Key:
Human mononuclear cells = assay: PMA-stimulated superoxide production (Experiment 11); format: cell-based; details: concentrations as high as 10^-5 M/L; PMA stimulated normal cells
Excerpt: Human mononuclear cells were studied for superoxide production in culture in the presence and absence of sorbinil. Superoxide production was stimulated in normal cells using the mitogen phorbol myristate acetate (PMA).

[1] = tested on: spleen cells stimulated with Concanavalin A (Con A); assay: Spleen cell proliferative response to Con A after oral sorbinil (Experiment 8); format: in vivo, mice; details: for activation at 11 mg/kg/day: Mus musculus, read-out: Enhancement of proliferative response
Experimental: The proliferative response of T lymphocytes to the Con A mitogen requires the obligatory participation of adherent accessory cells, which are presumed to be macrophages.
Mice received sorbinil orally for one, two, or three days prior to sacrifice. The dosage was 11 mg/kg per day. Control mice received the buffer vehicle alone. Mice from these four groups were sacrificed and their spleens harvested. The spleens were teased into single-cell suspensions that were cultured with different concentrations of Con A for three or four days. One microcurie of tritiated thymidine was added to each culture 18 hours before the cultures were terminated. Incorporation of the tritiated thymidine into cellular DNA was measured by using a liquid scintillation counter. The results of this experiment are presented in FIGS. 20 and 21 and are summarized as follows: […]

[2] = tested on: spleen cells from irradiated C57B6 mice with thymocytes from Balb C mice; assay: Mixed lymphocyte response (Experiment 19); format: cell-based; details: concentrations as high as 10^-5 M/L
Mouse P338D cells = assay: Release of 3H-arachidonic acid metabolites, A23187-stimulated cells (Experiment 9); format: cell-based; details: 10^-6 M/L sorbinil; stimulated by A23187
Excerpt: The assay protocol was as described generally in Henderson, W. R., and S. J. Klebanoff, J. Biol. Chem. 258: 13522-13527, 1983, which is hereby incorporated by reference.

In the case of `O=C1NC(=O)[C@@]2(CCOc3ccc(F)cc32)N1` [Sorbinil, 4(S)-2,3-dihydro-6-fluorospiro-(4H-1-benzopyran-4,4'-imidazolidine)-2',5'-dione], the Production of superoxide (Human mononuclear cells) is reported as “no effect”, the activation at 11 mg/kg/day ([1]; 72 h) is reported as 9% and the activation at 11 mg/kg/day ([1]; 96 h) is reported as 3 to 30%. The “Reduction of proliferative response” value ([1]; cultures harvested day four, sorbinil three days prior to harvest) was 25-58%, the “Reduction of proliferative response” value ([1]; cultures harvested day four, sorbinil two days prior to sacrifice) was 5 to 18% and the “Reduction of proliferative response” value ([1]; cultures harvested day three, sorbinil one day prior to sacrifice, 1 μmg of Con A/ml) was 25%. For the same compound, the “Reduction of proliferative response” value ([1]; cultures harvested day three, sorbinil one day prior to sacrifice, Con A 2 μmg/ml) was 18%, the “Reduction of proliferative response” value ([1]; cultures harvested day three, sorbinil three days prior to sacrifice, Con A 2 μmg/ml) was 30% and the “Reduction of proliferative response” value ([1]; cultures harvested day three, sorbinil three days prior to sacrifice, Con A 5 μmg/ml) was 27%. For the same compound, the “Reduction of proliferative response” value ([1]; cultures harvested day three, sorbinil two days prior to sacrifice, 1 μmg of Con A/ml) was 22%, the “Reduction of proliferative response” value ([1]; cultures harvested day three, sorbinil two days prior to sacrifice, Con A 2 μmg/ml) was 11% and the “Proliferative response to the mitogen Con A (in words)” value ([1]; sorbinil 11 mg/kg per day orally prior to sacrifice) was “reduced proliferative response; also recorded: inhibits the proliferative response of T-cells”. The “Kinetics of the proliferative response of spleen cells to Con A” value ([1]; sorbinil one, two, or three days prior to spleen cell harvesting) was “not affected”, the “Dose response pattern to Con A” value ([1]; sorbinil-treated vs buffer-treated mice) was “similar” and the Mixed lymphocyte response [2] was “no effect”. For the same compound, the “Release of arachidonic acid metabolites” value (Mouse P338D cells) was “no effect”.
